US20180256596A1, “METHOD AND TOPICAL COMPOSITION FOR THE TREATMENT OF ROSACEA AND SKIN ERYTHEMA USING PYRITHIONE ZINC” (priority 2017, published 2018)

Test system: facial Rosacea
Test: clinical type observations of topical application to facial skin
Assay type: in vivo
Settings: pyrithione zinc aqueous solution of 1% concentration strength as sole active ingredient
Method: In usage, the fluid composition of the invention is to be administered topically by a vehicle or carrier medium compatible with application to the skin. A useful regimen would be to a) mix 1 part of a 1% concentration strength pyrithione zinc aqueous solution with 3 parts of a cocoa butter emulsion moisturizer cream carrier; b) apply the fluid composition to the facial area of concern; c) leave the fluid composition for 2-3 minutes at the area of application; and d) rinse it off. […] For a more resistant condition of facial Rosacea, the regimen would be essentially the same—but with an increased concentration strength of pyrithione zinc aqueous solution, as by the addition of further pyrithione zinc (or zinc pyrithione) crystals to the aqueous formulation.

[O-]n1ccccc1=S.[O-]n1ccccc1=S.[Zn+2] [pyrithione zinc, Bis [1-hydroxy-2(1H)-pyridinethionato-O,S] (T-4) zinc]
redness, flushing and inflammation associated with facial Rosacea and skin erythema: significantly reducing the redness, flushing and inflammation
